Assays:
human IL-8 promoter = experiment: IL-8 promoter luciferase assay, HeLa cells with wild type PPARγ; format: cell-based
Protocol: For PPARγ activation assay, HEK293 cells were plated in 12-well cell culture plates and maintained in Dulbecco's modified Eagle's medium (DMEM) supplemented with 10% fetal bovine serum (FBS) at 37° C. under 5% CO2. Cells were changed to phenol red-free DMEM supplemented with 10% charcoal-stripped fetal bovine serum 3 hours before transfection by a standard calcium-phosphate precipitation method. Twelve hours after transfection, the cells were washed with phosphate-buffered saline (PBS) and fed again with fresh medium containing the indicated concentrations of compounds. After 36 hours, cells were harvested for β-galactosidase and luciferase activities as described previously (Li et al., Proc Natl Acad Sci USA 94:8479-84, 1997). The average normalized luciferase activity was determined via triplicate experiments. For IL-8 promoter assay, HeLa cells were maintained and transfected in the same way as described above. After transfection, cells were recovered for 4 hours before treatment with AJA, GW347845, or solvent. After 3-4 hours, cells were treated with or without 25 nM of phorbol myristate acetate (PMA) for 24 hours.
The IL-8 luciferase reporter controlled by the human IL-8 promoter (-97/-69) was cotransfected with mPPARγ or mPPARγ ΔAF2 mutant into HeLa cells. After transfection, cells were treated with AJA, GW347845 or solvent after PMA treatment for 24 hours. This was performed by determining the effect of AJA on IL-8 promoter activity and the role of PPARγ in this process. IL-8 is a biomarker for inflammation, and reduction of IL-8 levels correlates with a decrease in inflammation. The involvement of PPARγ in regulating IL-8 promoter activity was determined by comparing the IL-8 promoter activity in the presence of wild type PPARγ or its ΔAF2 mutant. In the experiment illustrated in FIG. 6A, PMA stimulated IL-8 promoter activity 3 fold, which was set as 100% promoter activity.

[1] = mouse tail clip assay, cited from earlier work

In the case of `CCCCCCC(C)(C)c1cc(O)c2c(c1)OC(C)(C)[C@@H]1CC=C(C(=O)O)C[C@@H]21` [AJA, dimethylheptyl-THC-11-oic acid], the “reduction of PMA-stimulated IL-8 promoter activity” value (human IL-8 promoter; 20 μM, HeLa cells) is listed as “about 40%”, the “significance of the reduction of IL-8 promoter activity” value (human IL-8 promoter; 10 and 20 μM AJA) is listed as “statistically significant” and the analgesic function ([1]; Dajani et al. 1999) is listed as “potent analgesic function comparable with morphine”. The “duration of analgesic effect” value ([1]; compared with morphine) was “lasted even longer than morphin”.
